From ChEMBL document CHEMBL1201862, “PubChem BioAssay data set” (2004)
Values joined by “and” are separate entries in the source; they are usually repeats but may differ in a detail not shown here. Identical values can stand only once. Active and inactive are the calls of the source.

Key:
[1] = molecular target: Cytochrome P450 2C9 (Homo sapiens, UniProt P11712)
[2] = molecular target: T1, Rac GTPase-activating protein 1 (Homo sapiens, UniProt Q9H0H5); test: blockers of MgcRacGAP-driven Rac1 GTP hydrolysis – biochemical, ADP Hunter fluorescence, primary and confirmatory, confirmation (AID 624330); type: functional
T1 sequence (Q9H0H5 whole entry): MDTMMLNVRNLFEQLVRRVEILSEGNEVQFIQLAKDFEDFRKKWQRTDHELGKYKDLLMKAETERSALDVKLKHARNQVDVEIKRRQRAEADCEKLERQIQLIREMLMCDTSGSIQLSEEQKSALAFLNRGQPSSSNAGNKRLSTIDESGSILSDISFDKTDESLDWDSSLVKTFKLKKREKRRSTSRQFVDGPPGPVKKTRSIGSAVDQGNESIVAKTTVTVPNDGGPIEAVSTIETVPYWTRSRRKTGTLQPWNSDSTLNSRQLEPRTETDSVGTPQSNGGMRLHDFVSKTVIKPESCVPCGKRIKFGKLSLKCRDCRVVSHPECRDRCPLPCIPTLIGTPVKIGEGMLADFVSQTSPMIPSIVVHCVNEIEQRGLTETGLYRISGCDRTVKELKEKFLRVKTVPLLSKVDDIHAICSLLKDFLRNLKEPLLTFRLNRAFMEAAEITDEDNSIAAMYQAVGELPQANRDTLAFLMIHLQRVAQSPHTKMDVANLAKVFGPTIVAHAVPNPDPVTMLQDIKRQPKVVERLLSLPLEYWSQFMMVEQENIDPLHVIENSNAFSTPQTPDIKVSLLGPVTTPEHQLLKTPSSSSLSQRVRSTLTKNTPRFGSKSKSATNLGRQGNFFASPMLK

[3] = molecular target: Cytochrome P450 2C19 (Homo sapiens, UniProt P33261); test: Cytochrome panel assay with activity outcomes. Panel member name: p450-cyp2c19 Compounds with AC50 equal or less than 10 uM are considered active; type: functional; settings: read-out: AC50
Cytochrome P450 2C19, sequence (P33261 whole entry): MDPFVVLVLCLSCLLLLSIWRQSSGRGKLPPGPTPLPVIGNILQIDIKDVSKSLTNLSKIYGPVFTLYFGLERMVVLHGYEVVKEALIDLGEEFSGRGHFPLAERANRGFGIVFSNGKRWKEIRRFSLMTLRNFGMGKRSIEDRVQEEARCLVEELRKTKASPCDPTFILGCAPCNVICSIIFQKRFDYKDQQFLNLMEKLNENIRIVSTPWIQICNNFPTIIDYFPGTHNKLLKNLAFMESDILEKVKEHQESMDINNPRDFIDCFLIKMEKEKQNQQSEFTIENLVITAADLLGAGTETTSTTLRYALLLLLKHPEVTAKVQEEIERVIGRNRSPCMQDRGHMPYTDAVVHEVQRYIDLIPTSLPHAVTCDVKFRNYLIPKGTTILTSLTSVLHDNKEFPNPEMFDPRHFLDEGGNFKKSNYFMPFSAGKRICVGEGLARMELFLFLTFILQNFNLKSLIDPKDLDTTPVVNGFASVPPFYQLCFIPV

[4] = molecular target: Cytochrome P450 3A4 (Homo sapiens, UniProt P08684);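 note: CYP3A4 tested as one member of a cytochrome P450 panel screen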
Cytochrome P450 3A4, sequence (P08684 whole entry): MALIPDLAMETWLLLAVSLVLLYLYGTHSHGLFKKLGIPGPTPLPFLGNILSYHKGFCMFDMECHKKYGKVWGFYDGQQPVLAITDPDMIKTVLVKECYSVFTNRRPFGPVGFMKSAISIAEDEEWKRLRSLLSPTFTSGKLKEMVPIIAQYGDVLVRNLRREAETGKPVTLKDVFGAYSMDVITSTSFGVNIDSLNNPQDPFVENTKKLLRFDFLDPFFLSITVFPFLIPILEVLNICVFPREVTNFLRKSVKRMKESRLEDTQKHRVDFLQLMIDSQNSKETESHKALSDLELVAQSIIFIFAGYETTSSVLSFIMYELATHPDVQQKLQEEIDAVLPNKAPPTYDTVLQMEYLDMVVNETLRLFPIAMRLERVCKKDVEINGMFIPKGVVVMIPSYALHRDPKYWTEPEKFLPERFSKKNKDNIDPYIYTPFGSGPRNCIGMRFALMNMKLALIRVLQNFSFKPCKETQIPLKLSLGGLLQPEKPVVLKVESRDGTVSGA

[5] = molecular target: T2, Streptokinase A (Streptococcus pyogenes serotype M1, UniProt P10520); test: viability-normalized secreted streptokinase activity reduction – plasminogen activation absorbance, OD405, dose response (AID 1914); type: functional, Streptococcus pyogenes M1 GAS;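 note: secreted streptokinase activity via plasminogen activation per viability signal from cell pellet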
T2 sequence (P10520 whole entry): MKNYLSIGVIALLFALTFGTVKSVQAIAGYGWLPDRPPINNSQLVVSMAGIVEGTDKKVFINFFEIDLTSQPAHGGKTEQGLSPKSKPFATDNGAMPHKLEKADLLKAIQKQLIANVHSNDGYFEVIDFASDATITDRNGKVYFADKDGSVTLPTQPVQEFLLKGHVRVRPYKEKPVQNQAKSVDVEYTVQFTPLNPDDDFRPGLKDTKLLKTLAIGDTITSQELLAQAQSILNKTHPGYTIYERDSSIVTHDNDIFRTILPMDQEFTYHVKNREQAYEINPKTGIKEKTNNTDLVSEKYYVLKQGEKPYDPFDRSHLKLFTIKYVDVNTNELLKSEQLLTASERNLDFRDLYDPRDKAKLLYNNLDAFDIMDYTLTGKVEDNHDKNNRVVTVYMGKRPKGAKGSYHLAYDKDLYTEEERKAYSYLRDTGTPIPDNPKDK

[6] = system: Streptococcus sp. 'group A'; test: Streptococcus pyogenes SK(-)GAS viability under kanamycin – luminescence, BacTiterGlo, confirmation, counter-screen for streptokinase expression inhibitor project, dose response (AID 1900); type: functional, organism-based
[7] = system: Streptococcus; test: GAS UMAA2166 growth inhibition – luminescence, BacTiterGlo, counter-screen for streptokinase expression inhibitor project, dose response (AID 1915); type: functional, organism-based;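 note: potency for reduction of bacterial viability or growth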
[8] = system: INS1; test: INS-1E survival protection against cytokine death – cell-based, luminescence, retest, dose response (AID 449756); type: functional; settings: Rattus norvegicus;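 note: cell death triggered by IL-1 beta plus TNF-alpha plus IFN-gamma mixture; protective hits raise ATP signal compared with cytokine alone wells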
[9] = system: H9c2; test: cells; type: functional, cell-based; settings: Rattus norvegicus, H9c2, Myocardium;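 note: confirmatory concentration-response retest of ultra-high-throughput screening hits for modulation of myocardial damage; cell death induced by hydrogen peroxide oxidative stress; compound pretreatment for 60 min then peroxide exposure for 2 h; potency is for protecting the cells against peroxide damage rather than for killing them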
[10] = molecular target: T3, RNA-binding protein pos-1 (Caenorhabditis elegans, UniProt G5EF15); test: disruptors of C. elegans POS-1 RNA interaction – biochemical, fluorescence polarization, dose response (AID 1964);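 note: purified POS-1 fused to maltose binding protein made in E. coli; potency of compounds blocking POS-1 binding to fluorescent RNA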
T3 sequence (G5EF15 whole entry): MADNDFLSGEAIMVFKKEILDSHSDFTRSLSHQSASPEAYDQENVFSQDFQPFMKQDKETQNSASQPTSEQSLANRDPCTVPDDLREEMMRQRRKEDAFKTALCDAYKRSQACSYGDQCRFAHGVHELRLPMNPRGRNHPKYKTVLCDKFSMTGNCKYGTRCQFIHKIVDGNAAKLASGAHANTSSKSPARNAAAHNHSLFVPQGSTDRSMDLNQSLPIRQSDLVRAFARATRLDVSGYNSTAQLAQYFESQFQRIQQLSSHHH

[11] = molecular target: T4, Zinc finger protein mex-5 (Caenorhabditis elegans, UniProt Q9XUB2); test: potency of MEX-5 RNA-binding blockers – biochemical, C. elegans, fluorescence polarization, dose response (AID 1960)
T4 sequence (Q9XUB2 whole entry): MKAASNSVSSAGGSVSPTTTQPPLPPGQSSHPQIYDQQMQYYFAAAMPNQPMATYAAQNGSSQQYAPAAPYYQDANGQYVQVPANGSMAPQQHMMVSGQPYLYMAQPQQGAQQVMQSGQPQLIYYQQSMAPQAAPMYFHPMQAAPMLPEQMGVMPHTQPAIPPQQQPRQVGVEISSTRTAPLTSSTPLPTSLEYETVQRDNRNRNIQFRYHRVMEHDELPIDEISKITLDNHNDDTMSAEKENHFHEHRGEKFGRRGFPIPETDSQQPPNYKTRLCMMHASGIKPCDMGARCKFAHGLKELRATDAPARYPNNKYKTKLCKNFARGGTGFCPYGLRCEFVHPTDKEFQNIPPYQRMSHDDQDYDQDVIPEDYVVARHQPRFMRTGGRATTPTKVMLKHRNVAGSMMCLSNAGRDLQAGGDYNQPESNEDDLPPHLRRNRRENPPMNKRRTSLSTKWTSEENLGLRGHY

Cytochrome P450 2C9, sequence (P11712 whole entry): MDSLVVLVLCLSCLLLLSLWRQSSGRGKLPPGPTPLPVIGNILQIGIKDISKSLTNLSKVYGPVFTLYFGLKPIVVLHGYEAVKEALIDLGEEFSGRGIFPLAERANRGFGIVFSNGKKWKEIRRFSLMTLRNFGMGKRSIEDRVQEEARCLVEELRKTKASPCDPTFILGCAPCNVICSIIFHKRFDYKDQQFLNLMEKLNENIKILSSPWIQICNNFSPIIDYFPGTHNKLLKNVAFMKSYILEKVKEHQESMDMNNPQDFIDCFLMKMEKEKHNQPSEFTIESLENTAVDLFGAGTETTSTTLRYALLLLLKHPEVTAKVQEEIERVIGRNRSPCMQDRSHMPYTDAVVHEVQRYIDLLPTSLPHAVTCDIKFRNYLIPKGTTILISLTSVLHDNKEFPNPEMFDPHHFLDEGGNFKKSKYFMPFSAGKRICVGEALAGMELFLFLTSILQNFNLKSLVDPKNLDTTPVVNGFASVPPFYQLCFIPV

NCC[Se][Se]CCN
AC50 [1]: 0.316 µM (inconclusive)

CCOC(=O)c1c(NC(C)=O)sc2c(OC)cccc12
AC50 [1]: 5.01 µM (inconclusive)

COc1ccc(-c2cc(C(=O)Nc3ccc(O)cc3)c3ccccc3n2)cc1OC
IC50 [2]: 159 µM (active)

CC1Cc2ccccc2N1C(=O)Cn1cc([N+](=O)[O-])cn1 (stereo not given)
AC50 [3]: 11.2 µM (inconclusive)
AC50 [1]: 39.8 µM (inconclusive)

FC(F)(F)c1ccccc1-c1ccc2ncnc(N3CCOCC3)c2c1
AC50 [4]: 5.01 µM (inconclusive)

O=C1c2ccccc2CC1(Cc1ccccc1)Cc1ccccc1
EC50 [5]: 12.9 µM (active)
EC50 [6]: 6.04 µM (active)
EC50 [7]: > 150 µM (not active)

C/C(=N\Nc1nc2ccc(Cl)cc2o1)c1ccccc1
EC50 [5]: > 150 µM (not active)
EC50 [6]: 6.79 µM (active)
EC50 [7]: > 150 µM (not active)

COc1ccc(-c2nc3cnc(N4CCN(C)CC4)nc3n(CCC#N)c2=O)cc1
AC50 [4]: 39.8 µM (inconclusive)

Cc1cccc(N2C(S)=NC(=Nc3c(C)cccc3C)C23CCOC(C)(C)C3)c1 (stereo not given)
AC50 [8]: 3.8 µM (active)

COC(=O)c1c(NC(=O)c2ccn(C)n2)sc2c1CCC2
EC50 [5]: > 150 µM (not active)
EC50 [6]: > 150 µM (not active)
EC50 [7]: > 150 µM (not active)

O=C(OCC(=O)c1cccs1)c1cccc(C(=O)OCC(=O)c2cccs2)n1
AC50 [4]: 35.5 µM (inconclusive)

COc1cc(/C=C/C(=O)OCC(=O)NC(=O)NC(C)C)ccc1O
IC50 [2]: 47.7 µM (active)

CCc1nnc(NC(=O)c2ccc(S(=O)(=O)N(C)c3ccccc3)cc2)o1
EC50 [5]: > 150 µM (not active)
EC50 [6]: 7.35 µM (active)
EC50 [7]: 8.72 µM (active)

O=C(CCc1nc(O)c2ccccc2n1)OCCOc1ccc(Cl)cc1
IC50 [9]: > 79 µM (inactive)

CCN(CC)c1ccc(/C=N/NC(=O)c2cc3ccccc3[nH]2)cc1
IC50 [2]: 146 µM (active)

O=C(CN1C(=O)C2CC=CCC2C1=O)Nc1nc(-c2ccc(F)cc2)cs1 (stereo not given)
IC50 [9]: > 79 µM (inactive)

O=C(CN1CCN(C/C=C/c2ccccc2)CC1)Nc1ccccc1C(=O)NC1CC1
IC50 [2]: 90.5 µM (active)

CCOC(=O)Cc1cc(O)n2ncc(-c3cccc(Br)c3)c2n1
EC50 [5]: > 150 µM (not active)
EC50 [6]: 2.14 µM (active)
EC50 [7]: 18 µM (active)

C/C(=N/NC(=O)c1cccs1)c1cccc(NC(=O)C2CC2)c1
IC50 [9]: > 79 µM (inactive)

CC(C)CN1CC[C@@]2(CCCN(S(=O)(=O)c3ccccc3)C2)C1
AC50 [4]: 5.01 µM (inconclusive)

O=C(Cc1ccc(Br)cc1)OCC(=O)c1ccc2c(c1)OCCO2
AC50 [1]: 7.94 µM (inconclusive)

COc1ccc2nc(O)c(CNc3ccc(C)c(C)c3)cc2c1
IC50 [9]: > 79 µM (inactive)

CN(C)c1ccccc1CN1CCCN(Cc2ccccc2N(C)C)C1c1ccncc1
AC50 [4]: 3.16 µM (inconclusive)

CC(C)CC(=O)Nc1ccc2c(c1)oc1ccccc12
AC50 [3]: 2.82 µM (inconclusive)
AC50 [1]: 8.91 µM (inconclusive)

COC(=O)c1[nH]c2cc(OC)c(OC)cc2c1/C=N/Nc1ccccc1
EC50 [10]: 20 µM (active)
EC50 [11]: 20.3 µM (inconclusive)
IC50 [9]: > 79 µM (inactive)

OC(CNC1CCCCC1)COCCOc1ccc(Br)cc1 (stereo not given)
AC50 [8]: 61.9 µM (active)

O=c1cnc2cnc(Nc3ccccc3)nc2n1Cc1ccc(F)cc1
AC50 [1]: 7.94 µM (inconclusive)

Cc1nc2cnc(N(C)C)nc2n(CCc2ccccc2)c1=O
AC50 [4]: 31.6 µM (inconclusive)

Cc1cccc(C)c1OC(=O)C(c1ccccc1)c1ccccc1
EC50 [5]: 17 µM (active)
EC50 [6]: 9.04 µM (active)
EC50 [7]: > 150 µM (not active)

CCCn1nc(C(=O)OCC(=O)c2c(N)n(C)c(=O)n(C)c2=O)c2ccccc2c1=O
IC50 [9]: 17.1 µM (active)

CCOc1ccc(NC(=O)c2cc3c(=O)n(C)c4ccccc4c3n2C)cc1
IC50 [9]: > 79 µM (inactive)

C=C[C@H](CC(C)C)N(Cc1ccccc1)S(=O)(=O)N(Cc1ccccc1)[C@@H](C=C)CC(C)C
AC50 [8]: 5.4 µM (active)

COCCn1c(=O)cnc2cnc(OCc3ccccc3)nc21
AC50 [4]: 20 µM (inconclusive)

CC(=O)c1cccc(NC(=O)C(C)OC(=O)CCc2nc(O)c3ccccc3n2)c1 (stereo not given)
IC50 [9]: 15.7 µM (active)

CC(=O)Nc1ccc(S(=O)(=O)NCC2CCC(C(=O)N3CCN(c4ccccn4)CC3)CC2)cc1 (stereo not given)
AC50 [3]: 10 µM (inconclusive)
AC50 [1]: 3.98 µM (inconclusive)

CCc1cc[n+](C2=Nc3ccccc3[N-]C2=C(C#N)C#N)cc1
AC50 [3]: 25.1 µM (inconclusive)
AC50 [4]: 15.8 µM (inconclusive)
AC50 [1]: 14.1 µM (inconclusive)

O=C(Nc1cccc(-c2nc3cccnc3s2)c1)c1ccco1
IC50 [9]: > 79 µM (inactive)

COC(=O)[C@H]1[C@H](c2ccccc2)C(=O)[C@@]2(O)c3ccccc3O[C@@]12c1ccccc1
AC50 [4]: 3.16 µM (inconclusive)
AC50 [1]: 6.31 µM (inconclusive)

Cc1cc(Oc2cnn(C(C)(C)C)c(=O)c2Cl)cc(C(C)C)c1
EC50 [5]: 9.54 µM (active)
EC50 [6]: 6.31 µM (active)
EC50 [7]: 12.6 µM (active)

COc1ccc(CC(=O)N(Cc2ccccc2)c2ccccc2)cc1S(=O)(=O)N1CCOCC1
IC50 [9]: 70.9 µM (inactive)

O=C(CN1CCN(S(=O)(=O)c2cc(Cl)ccc2Cl)CC1)c1ccc(O)c(O)c1
IC50 [9]: > 79 µM (inactive)

c1ccc2sc(NC3=NCN(C4CCCCCC4)CN3)nc2c1
AC50 [4]: 7.94 µM (inconclusive)
AC50 [1]: 39.8 µM (inconclusive)

COC(=O)c1ccc(OCC(=O)Nc2ccccc2C(=O)NC2CC2)cc1
IC50 [9]: > 79 µM (inactive)

C/C(CCN1CCc2nc(-c3ccccc3)c(-c3ccccc3)cc2C1)=N\O[C@@H](C)c1cn([C@H](CO)Cc2ccccc2)nn1
AC50 [4]: 3.98 µM (inconclusive) and 3.16 µM (inconclusive)

N[C@@H](C(=O)O)[C@H](CC(=O)O)c1ccc(Cl)cc1
AC50 [3]: 25.1 µM (inconclusive)
AC50 [1]: 39.8 µM (inconclusive)

CC(C)=NNc1cnnc2ccc([N+](=O)[O-])cc12
IC50 [9]: 8.8 µM (active)

Clc1nc2sccn2c1/C=N/n1cnc2ccccc21
IC50 [9]: > 79 µM (inactive)

Cc1cc(-c2ccccc2)nc(O)c1S(=O)(=O)c1ccc(Cl)cc1
AC50 [3]: 5.62 µM (inconclusive)
AC50 [1]: 3.55 µM (inconclusive)

CCCCn1cc[n+](C2=C([N-]S(=O)(=O)c3ccc(Cl)cc3)C(=O)c3ccccc3C2=O)c1
AC50 [8]: 4.18 µM (active)

CCOC(=O)c1cc(-c2nnc(-c3cc(OC)c(OC)c(OC)c3)o2)c(C)nc1C
IC50 [9]: > 79 µM (inactive)
